Measured values: ChEMBL document CHEMBL4613318, “Benzofuran-Based Carboxylic Acids as Carbonic Anhydrase Inhibitors and Antiproliferative Agents against Breast Cancer” (ACS Med Chem Lett, 2020)

Legend:
[1] = molecular target: Carbonic anhydrase 1 (Homo sapiens, UniProt P00915); assay: Inhibition of recombinant human carbonic anhydrase 1 preincubated with enzyme for 15 mins by phenol red dye based stopped flow CO2 hydration assay
[2] = molecular target: Carbonic anhydrase 2 (Homo sapiens, UniProt P00918); assay: Inhibition of recombinant human carbonic anhydrase 2 preincubated with enzyme for 15 mins by phenol red dye based stopped flow CO2 hydration assay
[3] = molecular target: Carbonic anhydrase 9 (Homo sapiens, UniProt Q16790)
Description: Inhibition of recombinant human carbonic anhydrase 9 preincubated with enzyme for 15 mins by phenol red dye based stopped flow CO2 hydration assay

[4] = molecular target: Carbonic anhydrase 12 (Homo sapiens, UniProt O43570); assay: Inhibition of recombinant human carbonic anhydrase 12 preincubated with enzyme for 15 mins by phenol red dye based stopped flow CO2 hydration assay
[5] = organism: Homo sapiens; assay: (§1) Selectivity index, ratio of Ki for recombinant human carbonic anhydrase 1 preincubated with enzyme for 15 mins by phenol red dye based stopped flow CO2 hydration assay to Ki for recombinant human carbonic anhydrase 9 preincubated with enzyme for 15 mins by phenol red dye based stopped flow CO2 hydration assay
[6] = organism: Homo sapiens; assay: as §1, with “anhydrase 2” for “anhydrase 1”
[7] = organism: Homo sapiens; assay: as §1, with “12” for “9”
[8] = organism: Homo sapiens; assay: as §1, with “anhydrase 2” for “anhydrase 1”, “anhydrase 12” for “anhydrase 9”
[9] = system: MCF7; assay: Antiproliferative activity against human MCF7 cells assessed as reduction in cell viability incubated for 48 hrs by SRB assay; type: functional, cell-based; conditions: MCF7, 48 h
[10] = system: MDA-MB-231; assay: cells; conditions: Homo sapiens, MDA-MB-231, 48 h

Chain of Carbonic anhydrase 12 (O43570 whole entry): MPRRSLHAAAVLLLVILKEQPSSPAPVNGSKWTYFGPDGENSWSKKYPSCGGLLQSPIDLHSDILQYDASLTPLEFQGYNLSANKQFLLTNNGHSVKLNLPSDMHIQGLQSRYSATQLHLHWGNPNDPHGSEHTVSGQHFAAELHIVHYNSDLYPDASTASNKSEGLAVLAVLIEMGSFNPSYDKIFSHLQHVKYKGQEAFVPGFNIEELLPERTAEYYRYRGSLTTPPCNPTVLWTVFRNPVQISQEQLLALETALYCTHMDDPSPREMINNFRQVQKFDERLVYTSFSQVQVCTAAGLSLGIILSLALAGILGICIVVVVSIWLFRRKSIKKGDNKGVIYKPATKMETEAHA
Chain of Carbonic anhydrase 1 (P00915 whole entry): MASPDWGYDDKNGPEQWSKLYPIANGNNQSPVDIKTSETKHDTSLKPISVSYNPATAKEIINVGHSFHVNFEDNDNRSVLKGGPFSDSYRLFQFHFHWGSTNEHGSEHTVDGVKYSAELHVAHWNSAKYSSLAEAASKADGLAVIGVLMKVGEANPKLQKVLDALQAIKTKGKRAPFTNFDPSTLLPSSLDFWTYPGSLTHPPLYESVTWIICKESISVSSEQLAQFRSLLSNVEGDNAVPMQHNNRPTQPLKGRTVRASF

Row | Ki [1] [µM] | Ki [2] [µM] | Ki [3] [µM] | Ki [4] [µM] | Ratio Ki [5] | Ratio Ki [6] | Ratio Ki [7] | Ratio Ki [8] | IC50 [9] [µM] | IC50 [10] [µM] | SMILES
1 | > 100 | 67.1 | 19 | 10.1 | 5 | 4 | 10 | 7 |  |  | O=C(O)CNC(=O)c1ccc(NC(=O)Nc2cc3cc(Br)ccc3o2)cc1
2 | 32.8 | 10.1 | 0.91 | 2.2 |  |  |  |  |  |  | Cc1c(NC(=O)Nc2cccc(C(=O)O)c2)oc2ccccc12
3 | 64.7 | 25.8 | 35.7 | 2.7 | 2 |  | 24 | 10 |  |  | Cc1c(NC(=O)Nc2ccc(C(=O)NCC(=O)O)cc2)oc2ccccc12
4 | > 100 | 7.9 | 1.6 | 3.4 | > 63 | 5 | > 29 | 2 |  |  | Cc1c(NC(=O)Nc2ccccc2C(=O)O)oc2ccccc12
5 | 4.5 | 3.1 | 5.1 | 0.88 |  |  | 5 | 4 |  |  | Cc1c(NC(=O)Nc2ccc(C(=O)O)cc2)oc2ccccc12
6 | > 100 | 4.1 | 5.1 | 8 | 20 |  | 13 |  |  |  | O=C(Nc1cc2cc(Br)ccc2o1)Nc1ccccc1C(=O)O
7 |  |  |  |  |  |  |  |  | 1.43 | 2.36 | COc1cccc2c1C(=O)c1c(O)c3c(c(O)c1C2=O)C[C@@](O)(C(=O)CO)C[C@@H]3O[C@H]1C[C@H](N)[C@H](O)[C@H](C)O1 [DOXORUBICIN]
8 | 20.5 | 7.2 | 0.56 | 1.6 |  |  |  |  |  |  | O=C(Nc1ccc(C(=O)O)cc1)Nc1cc2cc(Br)ccc2o1
9 | 33.2 | 37 | 0.79 | 2.3 |  |  |  |  |  |  | O=C(Nc1cccc(C(=O)O)c1)Nc1cc2cc(Br)ccc2o1
